Reference: EP4650351A1, “INHIBITOR OF COMPLEMENT FACTOR B” (Nanjing Chia Tai Tianqing Pharmaceutical Co., Ltd., priority 2023, dated 2024)

Legend:
[1] = biological target: T1, human complement factor B (Homo sapiens, UniProt P00751); experiment: TR-FRET competitive binding assay of human complement factor B (Cy5-labeled probe); conditions: inhibitory activity against complement factor B; biotin-labeled factor B 25 nM, Cy5 probe 75 nM, 4 °C
T1 construct: purchased ComplementTech A135

[2] = Pharmacokinetic study in mice; format: in vivo; conditions: mouse, 10 mg/kg, PO (10 mpk), male ICR (CD-1) mice, plasma; for AUC(0-t): read-out: AUC0-24
Description: Experimental Example 3: Pharmacokinetic study in mice
Purpose of the experiment: To investigate the plasma pharmacokinetics in male ICR (CD-1) mice after single intravenous administration and gavage administration of the compounds of the present disclosure.
Experimental animals: Male ICR (CD-1) mice, body weight 32-35 g; supplier: Vital River Laboratory Animal Technology Co., Ltd.
Experimental procedures: Intravenous Administration (IV); Oral Gavage (PO); the dose was 10 mg/kg (vehicle: water (containing 0.5% methylcellulose (w/v) and 0.5% Tween 80 (v/v)).
Sample collection: At each set time point, 40 µL of blood was collected from the orbital sinus of the experimental animals. Whole blood samples were placed in anticoagulant tubes containing EDTA-K2. The whole blood samples were centrifuged at 1500 g for 10 min to separate plasma. The upper-layer plasma samples were collected into sample tubes for LC-MS/MS analysis.
Data analysis: Plasma concentrations were processed using the non-compartmental model in WinNonlin™Version6.3 (Pharsight, Mountain View, CA) pharmacokinetic software. Pharmacokinetic parameters Cl, T1/2, Cmax, and AUC0-24 were calculated using the linear-log trapezoidal method, and the results were shown in the table below. Table 3. Results of the pharmacokinetic study

[3] = tested on: alternative complement pathway in human serum; experiment: Complement deposition assay of serum alternative pathway (Wieslab Complement system Alternative pathway kit); format: biochemical; conditions: human serum diluted 18-fold, 37 °C 60 minutes, absorbance 405 nm
Description: The Wieslab® Complement system Alternative pathway kit (WIESLAB® Complement system Alternative pathway AP330 RUO) was used to detect the inhibitory activity of the compounds on the alternative complement pathway in human serum. Human serum was diluted 18-fold with the kit diluent. The diluted serum was added to a 96-well plate at 130 µL/well. Using a compound titrator (Tecan, D300e), test compounds at corresponding concentrations were added. The test concentration of the compounds started at 10 µM, with 3-fold serial dilution for 6 concentration points, detected in single wells. The DMSO ratio was uniformly adjusted to 0.1% using DMSO in all drug-treated wells. In the positive control wells, 0.1% DMSO and 130 µL of diluted serum were added; in the negative control wells, 0.1% DMSO and 130 µL of the kit diluent were added. The mixtures were pre-incubated at room temperature for 15 min. The incubated mixtures were transferred to the 96-well plate provided by the kit at 100 µL per well, incubated at 37 °C for 60 minutes, and the liquid in the wells was discarded. 300 µL of the washing solution in the kit was added to each well. The wells were washed three times. 100 µL of the conjugated antibody Conjugate in the kit was added to each well, and it was incubated at room temperature for 30 minutes. The liquid in the wells was removed. 300 µL of the washing solution in the kit was added to each well and the wells were washed three times. 100 µL of the substrate solution was added to each well and incubated at room temperature for 30 minutes. […] Table 2. Results of complement deposition in serum alternative pathway

T1 sequence (P00751 26-764): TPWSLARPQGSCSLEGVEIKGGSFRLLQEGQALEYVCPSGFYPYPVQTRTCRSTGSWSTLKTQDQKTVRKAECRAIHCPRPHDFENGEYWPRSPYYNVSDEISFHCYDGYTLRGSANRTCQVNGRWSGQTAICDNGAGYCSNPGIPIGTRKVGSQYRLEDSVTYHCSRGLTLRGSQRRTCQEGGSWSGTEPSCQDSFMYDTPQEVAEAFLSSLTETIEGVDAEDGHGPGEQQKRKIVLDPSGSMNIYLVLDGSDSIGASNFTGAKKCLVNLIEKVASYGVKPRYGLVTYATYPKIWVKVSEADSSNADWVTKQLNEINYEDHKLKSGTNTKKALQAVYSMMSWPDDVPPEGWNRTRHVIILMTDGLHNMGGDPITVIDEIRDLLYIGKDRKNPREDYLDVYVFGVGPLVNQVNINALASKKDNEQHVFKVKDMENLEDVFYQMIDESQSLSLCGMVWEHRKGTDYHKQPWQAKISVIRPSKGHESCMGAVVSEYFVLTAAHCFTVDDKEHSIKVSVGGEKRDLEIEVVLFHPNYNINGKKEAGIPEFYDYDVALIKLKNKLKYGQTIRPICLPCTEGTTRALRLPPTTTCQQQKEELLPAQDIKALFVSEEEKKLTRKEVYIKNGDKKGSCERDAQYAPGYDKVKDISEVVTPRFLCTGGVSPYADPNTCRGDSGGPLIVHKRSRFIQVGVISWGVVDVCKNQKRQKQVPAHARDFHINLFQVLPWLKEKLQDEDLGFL

Row | SMILES | IC50 [1] [nM] | also measured
1 | COc1cc(C)c2[nH]ccc2c1CN1CCN(CC(F)(F)F)CC1c1ccc(C(=O)O)cc1 (racemic) [Example 11-2, (±)4-(1-((5-methoxy-7-methyl-1H-indol-4-yl)methyl)-4-(2,2,2-trifluoroethyl)piperazin-2-yl) benzoic acid] | 70.7 | –
2 | COc1cc(C)c2[nH]ccc2c1CN1CCN(CC2CC2)CC1c1ccc(C(=O)O)cc1 (racemic) [Example 4, (±)4-(4-(cyclopropylmethyl)-1-((5-methoxy-7-methyl-1H-indol-4-yl)methyl)piperazin-2-yl)benzoic acid] | > 1000 | –
3 | COc1cc(C)c2[nH]ccc2c1O[C@@H]1CCN(CC(F)(F)F)C[C@H]1c1ccc(-c2n[nH]c(=O)o2)cc1 [Example 33, 5-(4-((3R,4R)-4-((5-methoxy-7-methyl-1H-indol-4-yl)oxy)-1-(2,2,2-trifluoroethyl)piperidin-3-yl)phenyl)-1,3,4-oxadiazol-2(3H)-one] | 23.7 | –
4 | COc1cc(C)c2[nH]ccc2c1CN1CCN(CC(F)F)CC1c1ccc(C(=O)O)cc1 (racemic) [Example 6-1, (±)4-(4-(2,2-difluoroethyl)-1-((5-methoxy-7-methyl-1H-indol-4-yl)methyl)piperazin-2-yl)benzoic acid] | > 1000 | –
5 | COc1cc(C)c2[nH]ccc2c1SC1CCN(CC(F)F)CC1c1ccc(C(=O)O)cc1 (single isomer, unassigned) [Example 16-4] | 196 | –
6 | COc1cc(C)c2[nH]ccc2c1CN1CCN(CCC(F)(F)F)CC1c1ccc(C(=O)O)cc1 (racemic) [Example 9, (±)4-(1-((5-methoxy-7-methyl-1H-indol-4-yl)methyl)-4-(3,3,3-trifluoropropyl)piperazin-2-yl) benzoic acid] | 28.2 | –
7 | Cc1cc(OC(F)(F)F)c(O[C@@H]2CCN(CC(F)(F)F)C[C@H]2c2ccc(C(=O)O)cc2)c2cc[nH]c12 [Example 31, 4-((3R,4R)-4-((7-methyl-5-(trifluoromethoxy)-1H-indol-4-yl)oxy)-1-(2,2,2-trifluoroethyl)piperidin-3-yl)benzoic acid] | 427 | –
8 | CCOC1CCC(Sc2c(OC)cc(C)c3[nH]ccc23)C(c2ccc(C(=O)O)cc2)C1 (single isomer, unassigned) [Example 19a-4] | 257 | –
9 | [2H]C([2H])([2H])Oc1cc(C)c2[nH]ccc2c1O[C@@H]1CCN(CC(F)F)C[C@H]1c1ccc(C(=O)O)cc1 [Example 26, 4-((3R,4R)-1-(2,2-difluoroethyl)-4-((5-(methoxy-d3)-7-methyl-1H-indol-4-yl)oxy)piperidin-3-yl) benzoic acid] | 12.2 | Cmax [2]: 944 ng/mL; AUC(0-t) [2]: 4960 ng·h/mL
10 | CCOC1CCC(Sc2c(OC)cc(C)c3[nH]ccc23)C(c2ccc(C(=O)O)cc2)C1 (single isomer, unassigned) [Example 19b-2] | 8 | IC50 [3]: 104 nM
11 | COc1cc(C)c2[nH]ccc2c1CN1CCN(C2COC2)CC1c1ccc(C(=O)O)cc1 (racemic) [Example 3, (±)-4-(1-((5-methoxy-7-methyl-1H-indol-4-yl)methyl)-4-(oxetan-3-yl)piperazin-2-yl)benzoic acid] | > 1000 | –
12 | COc1cc(C)c2[nH]ccc2c1CN1CCN(C2CC(C(F)(F)F)C2)CC1c1ccc(C(=O)O)cc1 (racemic) [Example 10-2, (±)4-(1-((5-methoxy-7-methyl-1H-indol-4-yl)methyl)-4-(3-(trifluoromethyl)cyclobutyl)piperazin-2-yl)benzoic acid] | 117 | –
13 | Cc1cc(OC(F)F)c(O[C@@H]2CCN(CC(F)F)C[C@H]2c2ccc(C(=O)O)cc2)c2cc[nH]c12 [Example 29, 4-((3R,4R)-1-(2,2-difluoroethyl)-4-((5-(difluoromethoxy)-7-methyl-1H-indol-4-yl)oxy)piperidin-3-yl) benzoic acid] | 31.2 | –
14 | COc1cc(C)c2[nH]ccc2c1O[C@H]1CCN(CC(F)F)C[C@@H]1c1ccc(C(=O)O)cc1 [Example 13a-1, 4-((3S,4S)-1-(2,2-difluoroethyl)-4-((5-methoxy-7-methyl-1H-indol-4-yl)oxy)piperidin-3-yl)benzoic acid] | 982 | –
15 | CCCN1CCN(Cc2c(OC)cc(C)c3[nH]ccc23)C(c2ccc(C(=O)O)cc2)C1 (racemic) [Example 1-2, (±)4-(1-((5-methoxy-7-methyl-1H-indol-4-yl)methyl)-4-propylpiperazin-2-yl)benzoic acid] | – | IC50 [3]: 132 nM
16 | CCOC1CCC(Oc2c(OC)cc(C)c3[nH]ccc23)C(c2ccc(C(=O)O)cc2)C1 (single isomer, unassigned) [Example 20a-4] | 12.2 | IC50 [3]: 86.7 nM
17 | CCO[C@H]1CCN(Cc2c(OC)cc(C)c3[nH]ccc23)[C@H](c2ccc(C(=O)O)cc2)C1 [LNP023, reference compound] | – | Cmax [2]: 1160 ng/mL; AUC(0-t) [2]: 4110 ng·h/mL
18 | CCOC1CCC(Sc2c(OC)cc(C)c3[nH]ccc23)C(c2ccc(C(=O)O)cc2)C1 (single isomer, unassigned) [Example 19a-2] | 224 | –
19 | [2H]C([2H])([2H])Oc1cc(C)c2[nH]ccc2c1O[C@@H]1CCN(CC(F)(F)F)C[C@H]1c1ccc(C(=O)O)cc1 [Example 27, 4-((3R,4R)-4-((5-(methoxy-d3)-7-methyl-1H-indol-4-yl)oxy)-1-(2,2,2-trifluoroethyl)piperidin-3-yl) benzoic acid] | 9.13 | –
20 | Cc1cc(OC(F)F)c(O[C@@H]2CCN(CC(F)(F)F)C[C@H]2c2ccc(C(=O)O)cc2)c2cc[nH]c12 [Example 28, 4-((3R,4R)-4-((5-(difluoromethoxy)-7-methyl-1H-indol-4-yl)oxy)-1-(2,2,2-trifluoroethyl)piperidin-3-yl)benzoic acid] | 46 | –
21 | CCOC1CCC(Cc2c(OC)cc(C)c3[nH]ccc23)N(c2ccc(C(=O)O)cc2)C1 (single isomer, unassigned) [Example 32a-2, 4-(5-ethoxy-2-((5-methoxy-7-methyl-1H-indol-4-yl)methyl)piperidin-1-yl)benzoic acid] | 601 | –
22 | CCOC1CCC(Cc2c(OC)cc(C)c3[nH]ccc23)N(c2ccc(C(=O)O)cc2)C1 (single isomer, unassigned) [Example 32a-4, 4-(5-ethoxy-2-((5-methoxy-7-methyl-1H-indol-4-yl)methyl)piperidin-1-yl)benzoic acid] | 285 | –
23 | CCOC1CCC(Sc2c(OC)cc(C)c3[nH]ccc23)C(c2ccc(C(=O)O)cc2)C1 (single isomer, unassigned) [Example 19b-4] | 178 | –
24 | COc1cc(C)c2[nH]ccc2c1O[C@H]1CCN(CCC(F)(F)F)C[C@@H]1c1ccc(C(=O)O)cc1 (single isomer, unassigned) [Example 15a-2] | – | IC50 [3]: 54.8 nM
25 | Cc1cc(OC(F)(F)F)c(O[C@@H]2CCN(CC(F)F)C[C@H]2c2ccc(C(=O)O)cc2)c2cc[nH]c12 [Example 30, 4-((3R,4R)-1-(2,2-difluoroethyl)-4-((7-methyl-5-(trifluoromethoxy)-1H-indol-4-yl)oxy)piperidin-3-yl)benzoic acid] | 72.2 | –
26 | COc1cc(C)c2[nH]ccc2c1CN1CCN(CC(F)F)CC1c1ccc(C(=O)O)cc1 (racemic) [Example 6-2, (±)4-(4-(2,2-difluoroethyl)-1-((5-methoxy-7-methyl-1H-indol-4-yl)methyl)piperazin-2-yl)benzoic acid] | – | IC50 [3]: 215 nM
27 | Cc1cc(OC(F)F)c(OC2CCN(CCC(F)(F)F)CC2c2ccc(C(=O)O)cc2)c2cc[nH]c12 (single isomer, unassigned) [Example 25-2] | 24 | –
28 | [2H]C([2H])([2H])Oc1cc(C)c2[nH]ccc2c1O[C@H]1CCN(CCC(F)(F)F)C[C@@H]1c1ccc(C(=O)O)cc1 (single isomer, unassigned) [Example 17a-2] | – | Cmax [2]: 679 ng/mL; AUC(0-t) [2]: 6480 ng·h/mL
29 | COc1cc(C)c2[nH]ccc2c1CN1CCN(CC2CC2(F)F)CC1c1ccc(C(=O)O)cc1 (racemic) [Example 5, (±)4-(4-((2,2-difluorocyclopropyl)methyl)-1-((5-methoxy-7-methyl-1H-indol-4-yl)methyl)piperazin-2-yl)benzoic acid] | 202 | –
